The record followed here is ChEMBL document CHEMBL5442334, “ASAP - In vitro safety pharmacology profile” (2024).

The target in data set [1] is 3',5'-cyclic-AMP phosphodiesterase 4D (Homo sapiens) (UniProt Q08499). Briefly: SafetyScreen: PDE4D2 Human Phosphodiesterase Enzymatic LeadHunter Assay, catalogue number: 4077. Type of data set: functional. As to conditions: Test compound concentration 10.0 uM.
Data set [2] has as its target cGMP-inhibited 3',5'-cyclic phosphodiesterase 3A (Homo sapiens) (UniProt Q14432). Briefly: SafetyScreen: PDE3A Human Phosphodiesterase Enzymatic LeadHunter Assay, catalogue number: 4072. Type of data set: functional. As to conditions: Test compound concentration 10.0 uM.
The target of data set [3] is Beta-1 adrenergic receptor (Homo sapiens) (UniProt P08588). Briefly: SafetyScreen: beta1 Human Adrenoceptor GPCR Binding Agonist Radioligand LeadHunter Assay, catalogue number: 18. As to conditions: Test compound concentration 10.0 uM.
Chain of Beta-1 adrenergic receptor (Homo sapiens) (P08588 whole entry, looked up): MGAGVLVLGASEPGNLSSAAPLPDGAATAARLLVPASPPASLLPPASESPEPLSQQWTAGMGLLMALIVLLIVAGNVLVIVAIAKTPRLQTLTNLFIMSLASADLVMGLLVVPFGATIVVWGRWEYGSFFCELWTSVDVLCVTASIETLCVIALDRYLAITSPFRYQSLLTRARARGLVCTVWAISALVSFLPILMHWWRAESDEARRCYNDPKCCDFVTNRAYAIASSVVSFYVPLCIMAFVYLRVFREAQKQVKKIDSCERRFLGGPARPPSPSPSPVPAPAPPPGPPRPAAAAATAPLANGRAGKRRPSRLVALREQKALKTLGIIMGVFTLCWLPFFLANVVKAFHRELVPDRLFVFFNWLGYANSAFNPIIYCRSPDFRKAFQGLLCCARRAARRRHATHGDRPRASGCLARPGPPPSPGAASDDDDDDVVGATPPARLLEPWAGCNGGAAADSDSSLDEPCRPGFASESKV
Data set [4] concerns the target D(2) dopamine receptor (Homo sapiens) (UniProt P14416). Briefly: SafetyScreen: D2S Human Dopamine GPCR Binding Agonist Radioligand LeadHunter Assay, catalogue number: 1322. As to conditions: Test compound concentration 10.0 uM.
For data set [5], the target named is D(1A) dopamine receptor (Homo sapiens) (UniProt P21728). Briefly: SafetyScreen: D1 Human Dopamine GPCR Binding Antagonist Radioligand LeadHunter Assay, catalogue number: 44. To be noted: Test compound concentration 10.0 uM.
Chain of D(1A) dopamine receptor (Homo sapiens) (P21728 whole entry): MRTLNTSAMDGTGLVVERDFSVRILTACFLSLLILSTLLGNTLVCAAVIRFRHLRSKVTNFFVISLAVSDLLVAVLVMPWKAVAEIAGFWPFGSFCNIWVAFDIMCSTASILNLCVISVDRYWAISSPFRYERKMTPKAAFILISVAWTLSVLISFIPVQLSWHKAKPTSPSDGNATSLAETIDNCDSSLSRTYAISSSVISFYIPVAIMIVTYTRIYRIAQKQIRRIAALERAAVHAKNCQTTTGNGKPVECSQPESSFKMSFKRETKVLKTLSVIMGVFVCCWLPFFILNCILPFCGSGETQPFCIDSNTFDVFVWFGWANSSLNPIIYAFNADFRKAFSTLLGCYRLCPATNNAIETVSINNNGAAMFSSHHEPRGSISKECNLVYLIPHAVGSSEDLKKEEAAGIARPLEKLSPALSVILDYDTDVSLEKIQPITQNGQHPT
In data set [6] the target is Histamine H1 receptor (Homo sapiens) (UniProt P35367). Briefly: SafetyScreen: H1 Human Histamine GPCR Binding Antagonist Radioligand LeadHunter Assay, catalogue number: 870. As to conditions: Test compound concentration 10.0 uM.
Chain of Histamine H1 receptor (Homo sapiens) (P35367 whole entry): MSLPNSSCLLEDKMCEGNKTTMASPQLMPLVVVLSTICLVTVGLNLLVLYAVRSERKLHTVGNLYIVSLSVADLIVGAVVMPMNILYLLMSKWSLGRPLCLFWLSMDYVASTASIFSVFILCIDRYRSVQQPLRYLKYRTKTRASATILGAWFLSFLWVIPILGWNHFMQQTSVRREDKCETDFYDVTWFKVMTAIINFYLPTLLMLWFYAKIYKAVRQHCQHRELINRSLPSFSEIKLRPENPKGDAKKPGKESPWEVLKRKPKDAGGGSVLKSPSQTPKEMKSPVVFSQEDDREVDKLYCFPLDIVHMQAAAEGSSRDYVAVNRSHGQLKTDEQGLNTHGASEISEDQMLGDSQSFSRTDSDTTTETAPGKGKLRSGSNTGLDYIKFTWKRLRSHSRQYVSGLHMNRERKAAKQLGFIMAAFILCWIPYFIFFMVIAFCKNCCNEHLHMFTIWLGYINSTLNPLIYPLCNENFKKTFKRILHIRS
The target of data set [7] is Cannabinoid receptor 1 (Homo sapiens) (UniProt P21554). Briefly: SafetyScreen: CB1 Human Cannabinoid GPCR Binding Agonist Radioligand LeadHunter Assay, catalogue number: 4708. As to conditions: Test compound concentration 10.0 uM.
Chain of Cannabinoid receptor 1 (Homo sapiens) (P21554 whole entry): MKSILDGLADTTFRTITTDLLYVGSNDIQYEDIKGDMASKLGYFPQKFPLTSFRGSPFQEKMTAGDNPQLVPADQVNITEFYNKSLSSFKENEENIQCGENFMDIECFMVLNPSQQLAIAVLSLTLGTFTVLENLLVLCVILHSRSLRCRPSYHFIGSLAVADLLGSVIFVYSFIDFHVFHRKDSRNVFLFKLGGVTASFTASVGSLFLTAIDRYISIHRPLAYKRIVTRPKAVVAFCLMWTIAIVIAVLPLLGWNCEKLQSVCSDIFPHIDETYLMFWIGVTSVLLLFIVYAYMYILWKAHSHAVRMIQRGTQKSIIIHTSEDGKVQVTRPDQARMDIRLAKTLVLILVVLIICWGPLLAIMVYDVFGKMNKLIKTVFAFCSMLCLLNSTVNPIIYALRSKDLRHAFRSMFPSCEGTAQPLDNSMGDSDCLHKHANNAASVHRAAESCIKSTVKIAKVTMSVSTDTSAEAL
Data set [8] deals with T1, 5-hydroxytryptamine receptor 1A (Homo sapiens) (UniProt P08908).
T1 sequence (whole entry): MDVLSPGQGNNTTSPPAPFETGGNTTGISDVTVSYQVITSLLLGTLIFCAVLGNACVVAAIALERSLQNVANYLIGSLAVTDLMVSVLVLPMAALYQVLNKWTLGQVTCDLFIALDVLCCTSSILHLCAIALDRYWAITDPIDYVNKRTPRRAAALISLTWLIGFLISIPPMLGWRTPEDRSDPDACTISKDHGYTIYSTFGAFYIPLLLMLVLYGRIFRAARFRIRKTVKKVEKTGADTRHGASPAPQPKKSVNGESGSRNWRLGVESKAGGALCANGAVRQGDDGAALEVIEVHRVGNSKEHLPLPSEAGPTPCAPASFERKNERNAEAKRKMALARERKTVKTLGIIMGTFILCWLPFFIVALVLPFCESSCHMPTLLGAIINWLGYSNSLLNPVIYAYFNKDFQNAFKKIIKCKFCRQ
Briefly: SafetyScreen: 5-HT1A Human Serotonin GPCR Binding Agonist Radioligand LeadHunter Assay, catalogue number: 131. To be noted: Test compound concentration 10.0 uM.

Data set [9] concerns the target T2, Prostaglandin G/H synthase 2 (Homo sapiens) (UniProt P35354).
T2 sequence (whole entry): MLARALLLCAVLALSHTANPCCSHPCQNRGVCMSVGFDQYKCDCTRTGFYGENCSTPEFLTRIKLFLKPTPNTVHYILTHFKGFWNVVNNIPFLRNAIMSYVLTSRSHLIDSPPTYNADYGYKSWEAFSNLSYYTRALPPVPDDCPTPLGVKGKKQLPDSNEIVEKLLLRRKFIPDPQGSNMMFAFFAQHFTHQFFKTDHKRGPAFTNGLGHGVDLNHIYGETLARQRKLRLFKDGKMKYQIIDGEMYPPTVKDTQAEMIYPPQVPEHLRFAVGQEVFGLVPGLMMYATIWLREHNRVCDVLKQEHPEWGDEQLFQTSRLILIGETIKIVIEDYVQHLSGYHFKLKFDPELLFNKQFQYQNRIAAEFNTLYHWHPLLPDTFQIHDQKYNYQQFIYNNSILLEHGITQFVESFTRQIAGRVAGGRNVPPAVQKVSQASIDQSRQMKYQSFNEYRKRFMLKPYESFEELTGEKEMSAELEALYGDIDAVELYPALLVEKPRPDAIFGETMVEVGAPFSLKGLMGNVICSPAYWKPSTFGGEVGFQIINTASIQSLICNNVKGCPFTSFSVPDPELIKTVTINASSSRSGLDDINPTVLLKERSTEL
Briefly: SafetyScreen: COX2 Human Cyclooxygenase Enzymatic LeadHunter Assay, catalogue number: 4186. Type of data set: functional. To be noted: Test compound concentration 10.0 uM.

Data set [10] addresses T3, Cholecystokinin receptor type A (Homo sapiens) (UniProt P32238).
T3 sequence (whole entry): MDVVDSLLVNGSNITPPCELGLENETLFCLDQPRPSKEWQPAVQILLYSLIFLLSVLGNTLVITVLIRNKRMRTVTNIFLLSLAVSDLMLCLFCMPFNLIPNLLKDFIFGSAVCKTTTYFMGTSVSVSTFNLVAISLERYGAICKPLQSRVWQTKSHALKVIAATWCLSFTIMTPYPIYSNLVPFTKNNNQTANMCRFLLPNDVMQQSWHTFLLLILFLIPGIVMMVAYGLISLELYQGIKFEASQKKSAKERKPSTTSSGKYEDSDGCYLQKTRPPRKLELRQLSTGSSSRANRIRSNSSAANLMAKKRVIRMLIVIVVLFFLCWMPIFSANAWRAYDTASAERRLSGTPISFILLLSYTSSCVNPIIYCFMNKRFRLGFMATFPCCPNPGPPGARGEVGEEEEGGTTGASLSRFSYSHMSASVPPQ
Briefly: SafetyScreen: CCK1 (CCKA) Human Cholecystokinin GPCR Binding Agonist Radioligand LeadHunter Assay, catalogue number: 39. To be noted: Test compound concentration 10.0 uM.

Data set [11] has as its target T4, Muscarinic acetylcholine receptor M1 (Homo sapiens) (UniProt P11229).
T4 sequence (whole entry): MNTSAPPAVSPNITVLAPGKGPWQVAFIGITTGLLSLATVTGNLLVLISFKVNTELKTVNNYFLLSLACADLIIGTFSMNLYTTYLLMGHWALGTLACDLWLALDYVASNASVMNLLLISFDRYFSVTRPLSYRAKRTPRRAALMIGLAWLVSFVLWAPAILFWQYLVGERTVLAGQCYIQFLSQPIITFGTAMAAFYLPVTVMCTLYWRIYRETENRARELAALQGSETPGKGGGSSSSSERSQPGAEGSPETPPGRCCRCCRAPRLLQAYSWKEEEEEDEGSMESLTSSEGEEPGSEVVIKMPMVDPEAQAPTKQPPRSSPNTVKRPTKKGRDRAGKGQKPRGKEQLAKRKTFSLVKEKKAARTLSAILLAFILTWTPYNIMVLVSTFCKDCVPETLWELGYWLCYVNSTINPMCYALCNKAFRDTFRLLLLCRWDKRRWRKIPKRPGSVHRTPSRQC
Briefly: SafetyScreen: M1 Human Acetylcholine (Muscarinic) GPCR Binding Antagonist Radioligand LeadHunter Assay, catalogue number: 91. As to conditions: Test compound concentration 10.0 uM.

The target of data set [12] is Mu-type opioid receptor (Homo sapiens) (UniProt P35372). Briefly: SafetyScreen: mu (MOP) Human Opioid GPCR Binding Agonist Radioligand LeadHunter Assay, catalogue number: 118. As to conditions: Test compound concentration 10.0 uM.
Chain of Mu-type opioid receptor (Homo sapiens) (P35372 whole entry): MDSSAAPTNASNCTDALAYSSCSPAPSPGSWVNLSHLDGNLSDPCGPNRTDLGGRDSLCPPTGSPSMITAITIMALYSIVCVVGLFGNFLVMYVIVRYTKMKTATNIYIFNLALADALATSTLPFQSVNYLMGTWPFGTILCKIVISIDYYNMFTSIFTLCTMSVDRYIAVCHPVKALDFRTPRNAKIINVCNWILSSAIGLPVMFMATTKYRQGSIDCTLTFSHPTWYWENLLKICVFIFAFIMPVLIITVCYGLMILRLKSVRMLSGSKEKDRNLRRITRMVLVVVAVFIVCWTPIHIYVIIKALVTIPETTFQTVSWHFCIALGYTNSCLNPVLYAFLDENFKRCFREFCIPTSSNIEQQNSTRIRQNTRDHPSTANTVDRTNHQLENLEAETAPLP
For data set [13], the target named is Voltage-gated L-type calcium channel (Rattus norvegicus, UniProt P22002+Q02485+P27732). Briefly: SafetyScreen: Cav1.2 (L-type) Rat Calcium Ion Channel Binding (Dihydropyridine Site) LeadHunter Assay, catalogue number: 161. To be noted: at 10 µM, test compound concentration 10 uM. Type of data set: protein assay.

The structures appear in SMILES notation.

The term inhibition denotes the drop in the measured response relative to a control, in per cent. In general, Inhibition refers to the change of the read-out against control, counted positive when it falls.

Chain of D(2) dopamine receptor (Homo sapiens) (P14416 whole entry): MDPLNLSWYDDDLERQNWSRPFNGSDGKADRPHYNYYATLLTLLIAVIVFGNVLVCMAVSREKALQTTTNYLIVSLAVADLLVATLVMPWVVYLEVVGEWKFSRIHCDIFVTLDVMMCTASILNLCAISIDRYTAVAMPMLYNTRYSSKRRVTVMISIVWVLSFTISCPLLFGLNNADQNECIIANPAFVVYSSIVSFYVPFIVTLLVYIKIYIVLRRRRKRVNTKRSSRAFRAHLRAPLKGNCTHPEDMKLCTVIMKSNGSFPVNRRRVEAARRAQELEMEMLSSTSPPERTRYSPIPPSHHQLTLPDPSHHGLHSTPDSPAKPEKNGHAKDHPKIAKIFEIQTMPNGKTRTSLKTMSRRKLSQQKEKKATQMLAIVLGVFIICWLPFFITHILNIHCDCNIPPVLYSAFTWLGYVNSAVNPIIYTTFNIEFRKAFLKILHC
Chain of 3',5'-cyclic-AMP phosphodiesterase 4D (Homo sapiens) (Q08499 whole entry): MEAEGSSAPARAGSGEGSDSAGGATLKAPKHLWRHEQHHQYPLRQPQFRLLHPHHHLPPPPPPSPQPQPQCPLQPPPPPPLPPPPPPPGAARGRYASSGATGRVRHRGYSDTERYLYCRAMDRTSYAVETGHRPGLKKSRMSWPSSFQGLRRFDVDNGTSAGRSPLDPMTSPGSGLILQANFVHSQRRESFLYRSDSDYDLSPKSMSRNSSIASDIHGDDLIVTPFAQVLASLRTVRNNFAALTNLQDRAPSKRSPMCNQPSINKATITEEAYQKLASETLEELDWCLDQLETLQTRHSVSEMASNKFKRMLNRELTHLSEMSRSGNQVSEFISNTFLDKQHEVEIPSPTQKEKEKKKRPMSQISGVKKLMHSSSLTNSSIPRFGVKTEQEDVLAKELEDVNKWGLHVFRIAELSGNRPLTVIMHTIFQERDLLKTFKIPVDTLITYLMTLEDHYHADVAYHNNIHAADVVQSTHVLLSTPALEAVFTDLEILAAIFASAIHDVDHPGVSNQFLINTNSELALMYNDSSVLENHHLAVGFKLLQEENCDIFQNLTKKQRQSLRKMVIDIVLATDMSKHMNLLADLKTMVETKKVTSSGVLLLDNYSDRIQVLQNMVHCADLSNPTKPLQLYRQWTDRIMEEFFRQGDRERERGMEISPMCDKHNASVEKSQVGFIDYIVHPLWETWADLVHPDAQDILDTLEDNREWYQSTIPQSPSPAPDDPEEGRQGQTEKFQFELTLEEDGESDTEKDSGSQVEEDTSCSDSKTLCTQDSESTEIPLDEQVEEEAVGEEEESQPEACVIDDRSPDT
Chain of cGMP-inhibited 3',5'-cyclic phosphodiesterase 3A (Homo sapiens) (Q14432 whole entry): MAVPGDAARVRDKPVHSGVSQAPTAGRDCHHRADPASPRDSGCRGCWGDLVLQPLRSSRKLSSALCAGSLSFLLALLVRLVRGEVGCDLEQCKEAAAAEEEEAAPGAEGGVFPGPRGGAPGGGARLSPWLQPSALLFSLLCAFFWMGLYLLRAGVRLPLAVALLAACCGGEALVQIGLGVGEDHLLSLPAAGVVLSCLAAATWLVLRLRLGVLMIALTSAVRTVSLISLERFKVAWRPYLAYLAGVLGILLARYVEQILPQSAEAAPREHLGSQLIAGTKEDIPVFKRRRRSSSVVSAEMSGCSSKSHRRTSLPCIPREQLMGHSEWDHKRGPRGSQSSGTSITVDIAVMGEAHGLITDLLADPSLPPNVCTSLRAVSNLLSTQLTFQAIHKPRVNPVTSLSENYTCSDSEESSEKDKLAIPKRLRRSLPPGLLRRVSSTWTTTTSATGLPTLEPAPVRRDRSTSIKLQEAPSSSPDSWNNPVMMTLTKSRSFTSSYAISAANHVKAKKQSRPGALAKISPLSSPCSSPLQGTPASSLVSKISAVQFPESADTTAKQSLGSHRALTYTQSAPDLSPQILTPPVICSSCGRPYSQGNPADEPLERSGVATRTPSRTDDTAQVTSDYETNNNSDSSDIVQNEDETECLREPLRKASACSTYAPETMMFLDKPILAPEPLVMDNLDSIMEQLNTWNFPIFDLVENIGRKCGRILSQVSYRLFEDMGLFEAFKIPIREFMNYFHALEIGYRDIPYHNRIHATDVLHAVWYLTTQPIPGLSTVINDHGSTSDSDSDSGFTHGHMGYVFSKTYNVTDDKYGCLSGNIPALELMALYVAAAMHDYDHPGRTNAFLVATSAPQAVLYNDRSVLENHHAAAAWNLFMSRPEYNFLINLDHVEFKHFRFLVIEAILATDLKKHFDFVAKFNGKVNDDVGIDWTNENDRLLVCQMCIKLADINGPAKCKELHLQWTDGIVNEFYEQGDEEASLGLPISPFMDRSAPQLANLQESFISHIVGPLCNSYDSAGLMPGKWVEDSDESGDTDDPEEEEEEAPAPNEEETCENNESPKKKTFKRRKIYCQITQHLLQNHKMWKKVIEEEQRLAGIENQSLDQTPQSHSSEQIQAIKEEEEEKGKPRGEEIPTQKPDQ

Regarding `Cn1ncc(-c2cc3c(N[C@@H](c4ccc5c(n4)OCCO5)C(C)(C)C)ncnc3[nH]2)c1C#N`, the inhibition in data set [1] came out at 20%; in [2] it was 37%; in data set [3] it was 11%; in data set [4], 13%; in [5], 9%; in data set [6], 7%. Besides, the inhibition was 33% in data set [7]; 15% in data set [8]; -9% in data set [9]; 4% in data set [10]; 13% in data set [11]; 28% in [12]. The Inhibition in [13] is 21%.
